Reference: paper PMC8159352, “Differentiating Aβ40 and Aβ42 in amyloid plaques with a small molecule fluorescence probe” (Chemical Science, 2020)

Columns and labels:
[1] = molecular target: T1, Aβ40 (amyloid beta 40) fibrils (Homo sapiens, UniProt P05067); assay: fluorescence titration of […] probe with fibrils; assay type: binding
T1 construct: gene APP; Aβ40 fibrils

[2] = molecular target: T2, Aβ42 (amyloid beta 42) fibrils (Homo sapiens, UniProt P05067); assay: fluorescence titration of […] probe with fibrils; assay type: binding
T2 construct: gene APP; Aβ42 fibrils
T2 sequence (P05067 672-713 limits assumed): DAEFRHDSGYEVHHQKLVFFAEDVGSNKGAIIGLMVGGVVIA

T1 sequence (P05067 672-711 limits assumed): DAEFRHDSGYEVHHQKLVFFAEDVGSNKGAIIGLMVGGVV

Work on CN(C)c1ccc(-c2ccc3cc(-c4nc5ccccc5s4)c(=N)oc3c2)cc1 [ICTAD-1] yielded a Kd [1] of 6.27 µM and a Kd [2] of 3.78 µM.
